The values that follow come from patent US9958450B2, “L-glucose derivatives having fluorescent chromophore” (HIROSAKI UNIVERSITY, priority 2008, dated 2018).

Molecules are shown by their SMILES.

Series [1] deals with acutely isolated substantia nigra pars reticulata neurons. The series can be described thus: Application of 2-NBDG or 2-NBDLG to acutely isolated neurons (normal fluorescence microscope). The conditions noted are these: 200 μM solution administered for 1 minute, 36 to 37° C., fluorescence images at 10 and 30 minutes after initiation of washing. In kind it is cell-based, mouse. Here is the method:
C57BL/6J mice at the age of 13 to 15 days after birth (juvenile period) or at the age of 33 to 45 days after birth (maturation period) were deeply anesthetized with urethane (i.p. 1.6 g/kg) and decapitated according to a common procedure. Thereafter, the brain was taken out from each mouse and cooled by immersion in a cold Ringer's solution^note 1) (at 0° C.) for 1 to 2 minutes, and then, coronal brain slices with a thickness of 400 μm were prepared using a microslicer (ZERO 1, Dosaka EM Co., Ltd.). […]
In a homemade perfusion chamber (Non-patent document 2) mounted on a heating-type xy stage (Zeiss Tempcontrol 37-2) of an inverted fluorescence microscope from Zeiss Axiovert 135 (100 W, a xenon light source), a 35-mm glass bottom culture dish^note 4) was placed, and a glass coverslip (neurons were placed thereon according to the method described in (A)) placed in the dish was perfused with a HEPES solution for recording at a rate of 1.3 mL/min. […]
In the fluorescence detection, a 450-490 nm standard bandpass excitation filter manufactured by Zeiss, Inc., a 510 nm dichroic mirror, and a 515-565 nm emission filter were used without using an ND filter, and as the objective lens, a Zeiss Plan Neofluar ×20 lens (NA 0.50) was used. […]

For another series, the system named is Escherichia coli K12. Briefly: Incorporation of 2-NBDG or 2-NBDLG into Escherichia coli (evaluation for the state of Escherichia coli). In kind it is cell-based. The conditions noted are these: for difference in fluorescence detection between 2-NBDG and 2-NBDLG: dead cells prepared by treating live cells with 70% ethanol at room temperature for 10 minutes; for fluorescence due to the incorporation into the cells: live cells, 50 μM, 37° C. for 10 minutes. Here is the method: Escherichia coli K12 was cultured with shaking overnight at 37° C. A 1 mL portion of the culture was centrifuged to collect cells, and the cells were suspended in 1 mL of phosphate buffered saline (PBS, a mixed solution of 0.01 M phosphate buffer and 0.137 M NaCl at pH 7.4). A 90 μL portion of the suspension was taken out, and 10 μL of the 2-NBDG solution or the 2-NBDLG solution was added thereto to give a final concentration of 50 μM, and then, an incorporation reaction was allowed to proceed at 37° C. for 10 minutes. After the reaction, the cells were collected by centrifugation and resuspended in PBS, and the cells were microscopically observed (objective lens ×10) and recorded using a CCD camera for microscopic observation.

A short description of series [2]: Fluorescence spectrum (maximum fluorescence wavelength). In kind it is physicochemical. From the text: When the case where a mixed liquid of 2-NBDG and 2-TRLG was used as the mixed liquid of a D-glucose derivative that has a fluorescent chromophore in the molecule and is specifically incorporated into cells and an L-glucose derivative that has, in the molecule, a fluorescent chromophore that emits fluorescence at a wavelength different from that of the fluorescence emitted by the D-glucose derivative that has a fluorescent chromophore in the molecule and is specifically incorporated into cells is cited as an example, the maximum fluorescence wavelength of the former is from 540 nm to 550 nm, and the maximum fluorescence wavelength of the latter is from 600 nm to 610 nm. Therefore, when the fluorescence at a wavelength in the vicinity of each of the maximum fluorescence wavelengths is detected for the solution obtained by mixing both glucose derivatives, the green fluorescence emitted by 2-NBDG and the red fluorescence emitted by 2-TRLG can be detected, respectively, and as a result of combining the both fluorescence spectra detected, yellow fluorescence can be detected. After administration of the mixed liquid of 2-NBDG and 2-TRLG to cells, when 2-NBDG is specifically incorporated into the cells, green fluorescence is detected from the inside of the cells. […] Therefore, by detecting the green fluorescence emitted by 2-NBDG after the mixed liquid of 2-NBDG and 2-TRLG is administered to cells, the specific incorporation of D-glucose into cells relative to L-glucose can be accurately evaluated in real time.
Incidentally, the validity of this evaluation result is supported by the result that when the mixed solution of 20 μM 2-TRLG and 100 μM 2-NBDG is used, green fluorescence emitted by 2-NBDG can be detected by detecting fluorescence at around 540 nm, and red fluorescence emitted by 2-TRLG can be detected by detecting fluorescence at around 610 nm (in the case of pH 7.4, the maximum fluorescence wavelength of 2-NBDG is 540 nm, and the maximum fluorescence wavelength of 2-TRLG is 610 nm, see FIG. 4). […]

For a further series, the system named is acutely isolated neurons. Briefly: Application of mixed solution of 2-NBDG and 2-TRLG to acutely isolated neurons (real-time laser scanning confocal fluorescence microscope). The conditions noted are these: mixed solution of 20 μM 2-TRLG and 100 μM 2-NBDG administered for 1 minute, 24° C., image at 1 minute after stopping the administration. In kind it is cell-based, mouse. Here is the method:
The preparation of acutely isolated neurons was performed in the same manner as in Example 1.
Then, 10 μL of this 2 mM solution was dissolved in 1 mL of a glucose-free HEPES buffer solution^note 6) containing 100 μM 2-NBDG so as to dilute the 2 mM solution to 100-fold, whereby a mixed solution of 20 μM 2-TRLG and 100 μM 2-NBDG was obtained.
3 mL of a HEPES solution^note 2) was added to a 35-mm glass bottom culture dish^note 4) having a glass bottom to which neurons were adhered, and further 3 mL of mineral oil (M8410, Sigma CO., Ltd.) was laminated thereon. […]
A total of three detectors (channels): a photomultiplier detector for light in a green wavelength range (PMT1) and a photomultiplier detector for light in a red wavelength range (PMT2), and also a detector for transmitted light (PMTTrans) were used simultaneously, and 512×512 pixel images were captured. The detection sensitivity was set as follows: PMT1: 868 V, PMT2: 868 V, and PMTtrans: 245 V. Incidentally, the optimal values of the detection wavelength ranges of green fluorescence (500-580 nm) and red fluorescence (580-740 nm) were selected not on the basis of an emission filter system, but on the basis of a system using a prism spectroscope and a slit in combination (standard of TCS SP5, Leica, Inc.). […]

Setting [3] is: 2-NBDG, 2-TRLG and 2-NMALG mixed at 1:1:25 (molar ratio), excited by laser light at 405 nm (FIG. 6).

For the compound `O=[N+]([O-])c1ccc(NC2C(O)OC(CO)[C@@H](O)C2O)c2nonc12` (stereo partly drawn) [2-NBDG, 2-[N-(7-nitrobenz-2-oxa-1,3-diazol-4-yl)amino]-2-deoxy-D-glucose], in series [1], the “green fluorescence from the cell (incorporation into the cell)” value is listed as “green fluorescence from the cell was observed”. Moreover, in the series with Escherichia coli K12, the “difference in fluorescence detection between 2-NBDG and 2-NBDLG” value is “a difference in the result of the fluorescence detection for 2-NBDG and 2-NBDLG was not observed”; the “fluorescence due to the incorporation into the cells” value was “significant fluorescence due to the incorporation of 2-NBDG into the cells could be detected”. Moreover, in series [2] (setting [3]), the maximum fluorescence wavelength entry is “around 540 nm”. Moreover, the maximum fluorescence wavelength in series [2] (pH 7.4, mixed solution of 20 μM 2-TRLG and 100 μM 2-NBDG (FIG. 4)) is 540 nm. In addition, the “fluorescence based on incorporation into the cell” value in the series with acutely isolated neurons is given as “only green fluorescence derived from 2-NBDG was observed”.
Regarding `O=[N+]([O-])c1ccc(NC2C(O)OC(CO)[C@H](O)C2O)c2nonc12` (stereo partly drawn) [2-NBDLG, 2-[N-(7-nitrobenz-2-oxa-1,3-diazol-4-yl)amino]-2-deoxy-L-glucose], the “green fluorescence from the cell (incorporation into the cell)” value in series [1] is “almost no green fluorescence from the cell was observed”. Also, in the series with Escherichia coli K12, the “difference in fluorescence detection between 2-NBDG and 2-NBDLG” value was “a difference in the result of the fluorescence detection for 2-NBDG and 2-NBDLG was not observed”; the “fluorescence due to the incorporation into the cells” value is given as “could not be detected”.
In the case of `CNc1ccccc1C(=O)N[C@H](C=O)[C@H](O)[C@@H](O)[C@@H](O)CO` [2-NMALG, 2-[N-2-(N′-methylamino)benzoylamino]-2-deoxy-L-glucose], in series [2] (setting [3]), the maximum fluorescence wavelength result is “around 450 nm”.
